Values quoted from earlier work in patent publication US12565499B2, “Compounds and methods” (INTRA-CELLULAR THERAPIES, INC., priority 2012, dated 2026).

Tested on: mice
Details: chronic administration; Berton et al., Science (2006) 311:864-868

CNCCC(Oc1ccc(C(F)(F)F)cc1)c1ccccc1 (stereo not shown) [fluoxetine]
reversal of isolation behavior in the social defeat/resident intruder model: reversed
